Measurements: patent US11535584B2, “Homovanillinic acid ester, in particular for creating a warm and/or pungent sensation” (SYMRISE AG, priority 2014, dated 2022)
Like-named read-outs stand apart in the source and are kept apart here.

Tests used:
[1] = EFSA / Scientific Committee on Food opinion 2002; cited from earlier work
tasters [2] = assay: Tasting of esters of homovanillinic acid: pungency score and profile (Example 5); format: in vivo; conditions: for Pungency assessed: scale of 1 (very weak)-9 (very strong)
tasters [3] = assay: as above; format: in vivo; conditions: 25 ppm in 5% sugar solution; for Pungency assessed: scale of 1 (very weak)-9 (very strong), 4 tasters
Procedure: The substance to be tasted was dissolved in ethanol and the ethanolic solution was then diluted with 5% sugar solution (final concentration: 25 ppm). For the tasting, the oral cavity was rinsed and spat out by 4 tasters with approx. 5 ml of the sugar solution.

[4] = Warming effect compared to vanillyl butyl ether (Example 11); format: in vivo; conditions: 4-10 ppm in 5% sugar solution vs 10 ppm vanillyl butyl ether
Text: Test solutions with 4-10 ppm ester of homovanillic acid were sensorially evaluated in a 5% sugar solution and were compared to a test solution of 10 ppm vanillyl butyl ether.

[5] = Tasting and sensorial assessment of isolated ethyl homovanillate (17) (Example 2); format: in vivo
Procedure: The primary reaction mixture is pre-fractionated using medium-pressure liquid chromatography (MPLC) (column material: Lewatit VP OC 1064; water/ethanol 3/1; v/v). Subsequently, further separation is carried out via preparative high-pressure liquid chromatography (pHPLC) (column: Phenomenex Luna C18 5μ 150×21.2 mm, flow rate 30 ml/min, detection 210 nm) in the isocratic mode (63% H2O, 37% MeOH). Final isolation of ethyl homovanillate (17) is carried out via semi-preparative high-pressure liquid chromatography (sPHPLC) in the gradient mode (column: YMC Triart C18 5μ 250×10 mm; A: H2O; B: MeOH; 0 min 65% A, 35% B; 25 min 40% A, 60% B; 30 min 100% B; flow rate 3 ml/min; detection: 250 nm). The obtained ethyl homovanillate (17) was subsequently freeze-dried and tasted and sensorially assessed at a dosage of 100 ppm in 5% sugar solution, 0.5% salt solution, 500 ppm caffeine solution and water.

testers [6] = assay: Sensorial assessment of combinations with grains of paradise extract, nonivamide and capsicum extract (Example 9); format: in vivo; conditions: for Effect in combination of nonivamide, capsicum extract and ester: versus combinations without esters (examples 26* and 28*)
testers [7] = assay: Increase in the alcohol pungency of an ethanolic solution (Example 10); format: in vivo
Procedure: On the basis of a 5% sugar solution with 20% ethanol (example 1), different concentrations (10-100 ppm) of ethyl-2-(4-hydroxy-3-methoxyphenyl) acetate (17), polymethoxylated flavone PMF 60 (Miritz) and combinations (10-50 ppm) of ethyl-2-(4-hydroxy-3-methoxyphenyl) acetate (17) with polymethoxylated flavone PMF 60 (Miritz) (20 ppm) were compared with a second base solution (5% sugar solution with 40% ethanol) (Tab. 4). To this end, 5 testers rinsed their mouth with about 5 ml of the relevant solution to be tasted, spat out the solution and assessed the taste sensation.

rat eyes = conditions: Szolcsanyi, Jancso-Gabor 1975; cited from earlier work
tasters [8] = assay: Isointensity of esters compared to nonivamide and a capsicum extract (Example 6); format: in vivo; conditions: 10 ppm of the ester in 5% sugar solution
Procedure: The substance to be tasted was dissolved in ethanol and the ethanolic solution was then diluted with 5% sugar solution (final concentration: 10 ppm). As reference, capsicum extract with 1,000,000 SHU (0.3-10 ppm) and nonivamide (0.1-1 ppm) were prepared in 5% sugar solution in increasing concentration. For the tasting, the oral cavity was rinsed and spat out by 4 tasters with approx. 5 ml of the solution to be tasted and assessed against the reference series.

trained panelists = assay: Time vs. intensity pungency profile compared with nonivamide (Example 8); format: in vivo; conditions: 25 ppm vs 0.5 ppm nonivamide in 5% sugar solution
Procedure: To obtain a time vs. intensity profile, trained panelists (n=8-10) rinsed their oral cavity with a gulp of a sample solution (5 ml of a 5% sugar solution). Then, the intensity of the characteristic pungency was assessed at defined time intervals on the basis of a scale without fixed graduation.

[9] = 50 and 100 ppm (examples 17 and 18)

## COc1cc(CNC(=O)CCCC/C=C/C(C)C)ccc1O [capsaicin, N-(4-hydroxy-3-methoxybenzyl)-8-methyl-(6E)-nonenoic acid amide]
[1]
  Evaluation of the genotoxic potential: negative result

## COc1cc(CC(=O)OC/C=C/c2ccccc2)ccc1O [compound 2, [(E)-Cinnamyl]-2-(4-hydroxy-3-methoxyphenyl) acetate]
Tasters [2]
  Profile: delayed effect, very pungent, slightly warming, somewhat mouthwatering
  Pungency assessed: 5-6

## COc1cc(CC(=O)OC(C)C)ccc1O [compound 7, Isopropyl-2-(4-hydroxy-3-methoxyphenyl) acetate]
Tasters [3]
  Profile: Late onset, tingling, warming, pungent, somewhat delayed, not long-lasting, pleasant
  Pungency assessed: 3

## CCC(C)OC(=O)Cc1ccc(O)c(OC)c1 (stereo not drawn) [compound 8, sec-Butyl-2-(4-hydroxy-3-methoxyphenyl) acetate]
Tasters [3]
  Profile: very delayed onset, tingling, mainly warming, gradually increasing pungency
  Pungency assessed: 3

## COc1cc(CC(=O)OCC(C)C)ccc1O [compound 9, Isobutyl-2-(4-hydroxy-3-methoxyphenyl) acetate]
Tasters [3]
  Profile: quick onset of pungency, warming, slightly biting pungency
  Pungency assessed: 4-5
[4]
  Warming effect compared to vanillyl butyl ether: warming effect similar to vanillyl butyl ether, but which lasted for a longer period

## CCCCCCCOC(=O)Cc1ccc(O)c(OC)c1 [compound 14, Heptyl-2-(4-hydroxy-3-methoxyphenyl) acetate]
Tasters [2]
  Profile: slightly delayed effect, burning, pungent, warming
  Pungency assessed: 3

## CCOC(=O)Cc1ccc(O)c(OC)c1 [compound 17, Ethyl-2-(4-hydroxy-3-methoxyphenyl) acetate]
[5]; 100 ppm in 0.5% salt solution
  Taste description: Pungent
[5]; 100 ppm in 5% sugar solution
  Taste description: Pungent, warming
[5]; 100 ppm in water
  Taste description: Pungent, stinging, slightly warming
Tasters [3]
  Profile: slightly warming, somewhat pungent
  Pungency assessed: 1-2
Testers [6]; 2 and 5 ppm capsicum extract with 1,000,000 SHU
  Additional effect in combination with capsicum extract at all concentrations: pleasantly warming effect, which remained even after the pungency sensation receded
Testers [6]; 10 and 25 ppm with 30 ppm grains of paradise extract, 5% sugar solution (examples 2 and 3)
  Effect on pungency in combination with grains of paradise extract: faster onset of the pungency
Testers [6]; [9]
  Assessment of the pungency sensation in combination with 2 ppm capsicum extract: pleasant and not long-lasting
  Effect on pungency in combination with 2 ppm capsicum extract with 1,000,000 SHU: same intensifying and faster onsetting effect
Testers [6]; 50 and 100 ppm (examples 22 and 23)
  Effect on pungency in combination with 5 ppm capsicum extract with 1,000,000 SHU: quick decline in the pungency
Testers [6]; 50 and 100 ppm with 0.2 or 0.5 ppm nonivamide
  Onset of pungency in combination with nonivamide: faster onset of the pungency
Testers [6]; 50 and 100 ppm with 0.2 or 0.5 ppm nonivamide (examples 7, 8, 12, 13)
  Intensification of pungency in combination with nonivamide: the pungency of nonivamide was intensified at both of the tested concentrations, wherein this intensification corresponded to more than just the additive effect
Testers [6]; combination with capsicum extract with 1,000,000 SHU
  Intensification of the pungency, 2 ppm versus 5 ppm capsicum extract: significantly higher with 2 ppm capsicum extract with 1,000,000 SHU than with 5 ppm
Testers [6]
  Effect in combination of nonivamide, capsicum extract and ester: quicker decline in the pungency sensation as well as a warming effect
Testers [7]; 10-50 ppm with 20 ppm PMF 60 in 5% sugar solution with 20% ethanol (examples 7-9)
  Effect of combination with polymethoxylated flavone PMF 60: an increase of the burning sensation was additionally generated, and an extension of these effects was also achieved
Testers [7]; 10 ppm in 5% sugar solution with 20% ethanol (example 2)
  Effect on taste sensation of base solution: an increase and an extension of the burning sensation in the mouth
Testers [7]; 20 ppm and 50 ppm in 5% sugar solution with 20% ethanol
  Effect on taste sensation of base solution: additional pungency effect
Testers [7]; compared to 5% sugar solution with 40% ethanol
  Nasal effect of combination with PMF 60: did not show any nasal effect
Testers [7]; with 20 ppm PMF 60 in 5% sugar solution with 20% ethanol
  Sensorially preferred concentration in combination with PMF 60: 20-50 ppm
[4]
  Warming effect compared to vanillyl butyl ether: milder warming effect

## CCCOC(=O)Cc1ccc(O)c(OC)c1 [compound 18, Propyl-2-(4-hydroxy-3-methoxyphenyl) acetate]
Tasters [3]
  Profile: weak and delayed pungency, gradually warming, tingling
  Pungency assessed: 4-5
[4]
  Warming effect compared to vanillyl butyl ether: long-lasting warming effect, but which occurred at a comparatively later time
Rat eyes
  Pain sensation in rat eyes: active

## CCCCOC(=O)Cc1ccc(O)c(OC)c1 [compound 19, Butyl-2-(4-hydroxy-3-methoxyphenyl) acetate]
Tasters [3]
  Profile: immediate pungency, quick decrease
  Pungency assessed: 7
Tasters [8]
  Concentration of capsicum extract with 1,000,000 SHU of comparable pungency: ~4.5 ppm
  Nonivamide concentration of comparable pungency: ~0.3 ppm
Trained panelists
  Decrease in pungency compared with nonivamide: considerably faster decrease in pungency
Trained panelists; identical total intensity
  Onset of the pungency compared with nonivamide: faster onset of the pungency
Testers [6]; 10 and 25 ppm with 2 or 5 ppm capsicum extract
  Intensification in combination with capsicum extract versus additive effect: the intensifications were more significant than just an additive effect
Testers [6]; 10 and 25 ppm with 2 or 5 ppm capsicum extract (examples 19, 20, 24, 25)
  Effects in combination with capsicum extract: the same effects were detected even at lower concentrations
Testers [6]
  Effect in combination of nonivamide, capsicum extract and ester: quicker decline in the pungency sensation as well as a warming effect
[4]
  Warming effect compared to vanillyl butyl ether: more marked warming effect

## CCCCCCOC(=O)Cc1ccc(O)c(OC)c1 [compound 21, Hexyl-2-(4-hydroxy-3-methoxyphenyl) acetate]
Tasters [3]
  Profile: clearly pungent, slightly delayed effect, warming, relatively fast decrease in pungency
  Pungency assessed: 9
Tasters [8]
  Concentration of capsicum extract with 1,000,000 SHU of comparable pungency: ~8.5 ppm
  Nonivamide concentration of comparable pungency: ~0.5 ppm

## COc1cc(CC(=O)OCCCc2ccccc2)ccc1O [compound 22, 3-Phenylpropyl-2-(4-hydroxy-3-methoxyphenyl) acetate]
Tasters [2]; 2 ppm in 5% sugar solution
  Profile: delayed effect, pungent, warming, slightly tingling
  Pungency assessed: 5

## COc1cc(CC(=O)OCCCCc2ccccc2)ccc1O [compound 23, 4-Phenylbutyl-2-(4-hydroxy-3-methoxyphenyl) acetate]
Tasters [2]; 2.5 ppm in 5% sugar solution
  Profile: delayed effect, pungent, delayed warming, burning, slightly tingling
  Pungency assessed: 4-5

## CCCCCCCCCCOC(=O)Cc1ccc(O)c(OC)c1 [decyl-2-(4-hydroxy-3-methoxyphenyl) acetate, reference compound]
Tasters [3]
  Profile: weakly pungent, delayed, pear-like and greasy-pulpy secondary effect, throat burns more than the tongue
  Pungency assessed: 2

## COC(=O)Cc1ccc(O)c(OC)c1 [methyl ester of homovanillic acid]
Rat eyes
  Pain sensation in rat eyes: active

## CCCCCCCCOC(=O)Cc1ccc(O)c(OC)c1 [octyl-2-(4-hydroxy-3-methoxy-phenyl) acetate, reference compound]
Tasters [3]
  Profile: slow onset of pungency, late, delayed, greasy-pulpy secondary effect, burning
  Pungency assessed: 7
Rat eyes
  Pain sensation in rat eyes: active
